Reference: patent US6504005B1, “Long-acting drugs and pharmaceutical compositions comprising them” (Yeda Research and Development Co. Ltd., priority 1996, dated 2003)
“And” between values parts separate entries of the source, which are not always exact repeats. Identical values can stand only once. Like-named read-outs stand apart in the source and are kept apart here.

Key:
Staphylococcus aureus = settings: relative to cephalexin control
Procedure: At the indicated time points, aliquots were withdrawn and analyzed for their potency to arrest growth of Staphylococcus aureus. Bacterial growth was then evaluated by increased turbidity measured spectroscopically at 700 nm.

intact rat adipocytes = type: cell-based; settings: for Activity following incubation at pH 8.5, 37° C. (%), 9 hrs: 9 hrs at pH 8.5, 37° C.; for Activity following incubation at pH 8.5, 37° C. (%), 20 hrs: 20 hrs at pH 8.5, 37° C.; for Activity following incubation at pH 8.5, 37° C. (%), 45 hrs: 45 hrs at pH 8.5, 37° C.
Procedure: (iii) Lipogenesis (Incorporation of Labeled Glucose into the Lipids of Intact Adipocytes) Rat adipocytes were prepared essentially by the method of Rodbell, 1964. The fat pads of male Wistar rats were cut into small pieces with scissors and suspended in 3 ml of KRB buffer containing NaCl, 110 mM; NaHCO3, 25 mM; Kcl, 5 mM; […] CaCl2, 1.3 mM; […] Five milliliters of buffer was then added, and the cells were passed through a mesh screen. The cells were then allowed to stand for several minutes in a 15 ml plastic test tube at room temperature, floating, and the buffer underneath was removed. This procedure (suspension, floating, and removal of buffer underneath) was repeated three times. […] Lipogenesis was terminated by adding toluene-based scintillation fluid (1.0 ml per vial) and the radioactivity in extracted lipids was counted (Moody et al., 1974).

normal rats = assay: Single intraperitoneal administration to normal rats, blood glucose levels; type: in vivo; settings: single i.p. injection, 3 mg/rat
Procedure: This assay reflects the post-subcutaneous long-acting feature of insulin (or insulin derivatives) within the circulation. Normal rats received a single intraperitoneal injection of native insulin, NPH-insulin and (Fmoc)2-insulin (3 mg/rat), and their blood glucose levels were monitored over a period of three days.
Blood glucose levels were followed for two days.

hGH receptor = assay: Displacement of iodinated hGH (receptor binding assay)
Procedure: Incubation of Fmoc-hGH at pH 8.5 (37° C.) for about 6 days or at pH 10.5 (37° C.) for four days yielded fully active, native hGH, as judged by HPLC analysis and by receptor binding assays.

[1] = Conversion of Fmoc-hGH to native hGH upon incubation (analytical HPLC); type: physicochemical; settings: pH 8.5, 37° C.
Procedure: Conversion of Fmoc-hGH to native hGH was evaluated by the increase in peak area corresponding to native hGH.

[2] = not given; remark: listed apart in the source
[3] = Solubility and appearance in aqueous buffer (pH 7.4)
[4] = target: insulin receptor tyrosine kinase (Rattus norvegicus, UniProt P15127); assay: Insulin receptor tyrosine kinase activity, [poly(Glu4Tyr)] phosphorylating assay (cell-free); settings: for Biological potency following incubation (2 days, 37° C., pH 8.5): after 2 days; for Biological potency (%): of native insulin potency, before incubation, [poly(Glu4Tyr)] phosphorylating assay
Sequence of insulin receptor tyrosine kinase (P15127 27-759 limits assumed): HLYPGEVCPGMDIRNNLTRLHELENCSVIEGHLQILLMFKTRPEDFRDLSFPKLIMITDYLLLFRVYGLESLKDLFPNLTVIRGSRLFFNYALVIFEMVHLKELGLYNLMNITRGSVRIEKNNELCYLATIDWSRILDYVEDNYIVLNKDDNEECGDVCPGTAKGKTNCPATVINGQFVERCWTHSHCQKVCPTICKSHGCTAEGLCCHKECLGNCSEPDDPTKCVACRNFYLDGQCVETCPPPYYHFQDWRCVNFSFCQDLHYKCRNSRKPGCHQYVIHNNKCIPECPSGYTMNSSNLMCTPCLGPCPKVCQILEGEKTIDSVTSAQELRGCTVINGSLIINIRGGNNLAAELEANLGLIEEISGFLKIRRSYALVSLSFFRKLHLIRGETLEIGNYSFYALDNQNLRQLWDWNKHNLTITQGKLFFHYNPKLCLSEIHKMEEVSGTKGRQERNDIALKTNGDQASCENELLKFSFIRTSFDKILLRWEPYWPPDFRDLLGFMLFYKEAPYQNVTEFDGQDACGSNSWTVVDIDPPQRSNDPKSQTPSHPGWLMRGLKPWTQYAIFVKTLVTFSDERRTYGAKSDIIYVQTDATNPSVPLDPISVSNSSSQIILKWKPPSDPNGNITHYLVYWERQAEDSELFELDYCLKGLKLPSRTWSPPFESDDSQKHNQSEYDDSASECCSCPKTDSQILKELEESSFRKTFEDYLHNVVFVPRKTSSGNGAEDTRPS
Sequence of insulin receptor tyrosine kinase (P15127 764-1383 partner limits assumed): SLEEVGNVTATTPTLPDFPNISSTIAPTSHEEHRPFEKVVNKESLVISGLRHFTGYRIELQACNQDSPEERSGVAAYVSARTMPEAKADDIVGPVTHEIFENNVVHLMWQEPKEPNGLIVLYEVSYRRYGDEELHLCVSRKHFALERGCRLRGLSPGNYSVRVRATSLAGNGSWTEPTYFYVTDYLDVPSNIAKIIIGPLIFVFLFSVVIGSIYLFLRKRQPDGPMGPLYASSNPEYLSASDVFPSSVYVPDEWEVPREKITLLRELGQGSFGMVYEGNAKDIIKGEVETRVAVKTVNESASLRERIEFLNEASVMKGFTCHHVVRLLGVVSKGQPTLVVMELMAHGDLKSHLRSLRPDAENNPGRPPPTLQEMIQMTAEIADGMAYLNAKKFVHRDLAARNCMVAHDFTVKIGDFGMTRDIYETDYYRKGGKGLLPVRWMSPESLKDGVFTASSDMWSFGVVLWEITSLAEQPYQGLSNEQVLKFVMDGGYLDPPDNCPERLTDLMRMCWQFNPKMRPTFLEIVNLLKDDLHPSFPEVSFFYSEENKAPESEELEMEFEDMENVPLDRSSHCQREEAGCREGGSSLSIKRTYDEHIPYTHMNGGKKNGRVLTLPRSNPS
Procedure: Briefly, the liver was homogenized in the presence of proteinase inhibitors, solubilized with 1% Triton X-100, and centrifuged. The supernatant was allowed to pass through a wheat-germ agglutinin (WGA)-agarose column (Sigma). Adsorbed insulin receptor portion was eluted with 0.3M N-acetyl-D-glucose amine in 50 mM HEPES buffer, pH 7.4, containing 0.1% Triton X-100, 10% glycerol, and 0.15M NaCl.
(iv) Receptor Tyrosine Kinase Activity Measurement
In this assay insulin activates its own receptor to phosphorylate a random copolymer containing L-glutamic acid and L-tyrosine at 4:1 molar ratio [Poly(Glu4Tyr)]SEQ ID NO:1. The standard enzyme assay mixture (final volume 60 μl in 50 mM Hepes, pH 7.4-0.1% Triton X-100) contained WGA purified insulin receptor (5μg protein), 20 mM MgCl2, 2 mM MnCl2, 100 μM ATP and varying concentrations (from 1 ng/ml to 10 mg/ml) of insulin or insulin derivative. Following a 30 min preincubation at 22° C., the reaction was initiated by adding Poly(Glu4Tyr) SEQ ID NO:1 (final concentration 0.7 mg/ml), it proceeded for 20 min at 22° C. and was terminated by adding EDTA (20 mM). Phosphotyrosine content in PolyGlu4Tyr was quantitated by a radio-immunoassay procedure using specific monoclonal antibodies to phosphotyrosine (final dilution 1: 100,000) and ^125I-BSA-phosphotyrosine conjugate.

[5] = type: physicochemical
Procedure: (i.e. at physiological pH and body temperature). At the indicated time points aliquots were withdrawn for determining the biological potency relative to native insulin. Biological activities were evaluated by Insulin receptor tyrosine kinase activation (a cell free assay as described in Biological Procedures above, section (iv)) and by stimulation of lipogenesis in intact rat adipocytes as described in Biological Procedures, […].

chymotrypsin and trypsin = settings: pH 7.4
Procedure: Chymotrypsin and trypsin (0.5% w/w, of each) was then added. At the indicated time points aliquots were withdrawn and subjected to analytical HPLC procedure.

STZ-diabetic rats = assay: Single subcutaneous administration to STZ-diabetic rats (blood glucose, daily weight gain)
Procedure: Diabetes was induced by a single intravenous injection of a freshly prepared solution of streptozotocin (55 mg/kg body weight) in 0.1M citrate buffer (pH 4.5) according to Meyerovitch et al., 1987.
Blood glucose levels and daily weight gains were followed over a period of seven days.
Group C (n=5) received the vehicle only (2.0 ml of 20% DMSO). Blood glucose levels were determined daily.

[6] = cited from earlier work
E. coli = type: cell-based; settings: for IC50: read-out: Concentration inhibiting 50% of bacterial growth; for Antimicrobial potency (%): relative to PMXB control
Procedure: At the indicated time points aliquots were withdrawn and analyzed for their potencies to arrest growth of E. coli, and bacterial growth was then evaluated by measuring turbidity at 700 nm.

For `CC1=C(C(=O)O)N2C(=O)[C@@H](NC(=O)[C@H](N)c3ccccc3)[C@H]2SC1` [native cephalexin, 7-(D-α-aminophenylacetamido)desacetoxycephalosporanic acid, reference compound], the “Antimicrobial potency (%)” value (Staphylococcus aureus; after 1 day at pH 7.4, 37° C.) was 100%, the “Antimicrobial potency (%)” value (Staphylococcus aureus; after 3 days at pH 7.4, 37° C.) was 100% and the “Antimicrobial potency (%)” value (Staphylococcus aureus; after 6 days at pH 7.4, 37° C.) was 100%. For the same compound, the “Antimicrobial potency (%)” value (Staphylococcus aureus; no incubation) was 100%.

In the case of “(Sulfmoc)2-insulin: insulin carrying two (2-sulfo)Fmoc groups on amino groups, water soluble”, the “Biologically active (%)” value (intact rat adipocytes; before incubation, assay not given) is reported as 0.5%, the “t½ of return to fully-active native insulin (increase in biological potency)” value (intact rat adipocytes; pH 8.5) is reported as 4-6 hours and the “Period of hypoglycemia / reduced blood glucose” value (normal rats) is reported as 24 h. The “Recovery from hypoglycemia, t½” value (normal rats) was 14 h, the “Time to full reversion / hydrolysis to the native hormone, pH 7.4” value (37° C., pH 7.4) was 10 days and the “t½ of reversion, pH 7.4” value (buffer, pH 7.4) was 6 days. For the same compound, the “t½ of reversion, pH 8.5” value (buffer, pH 8.5) was 12-15 hours and the “Increase in rate of hydrolysis versus Fmoc moiety” value (sulfonic acid group at position 2) was 2-3 fold.

With “Fmoc-hGH: human growth hormone modified with Fmoc-OSu” the “Ability to displace iodinated hormone (%)” value (from here on “Ability … (%)”) (hGH receptor; after 1 day, pH 10.5, 37° C.) was 25%, the “Ability … (%)” value (hGH receptor; after 4 days, pH 10.5, 37° C.) was 100% and the “Ability … (%)” value (hGH receptor; no treatment) was 15%. For the same compound, the “Incubation time yielding fully active, native hGH, pH 10.5” value (hGH receptor; pH 10.5, 37° C.) was “four days”, the “Conversion to hGH (%)” value ([1]; 1 day) was 23% and the “Conversion to hGH (%)” value ([1]; 2 days) was 62%. For the same compound, the “Conversion to hGH (%)” value ([1]; 6 days) was 100% and the “Incubation time yielding fully active, native hGH, pH 8.5” value [1] was “about 6 days”.

In the case of Gly^A1, Lys^B29-N-(Fmoc)2-insulin, the “Activity following incubation at pH 8.5, 37° C. (%), 9 hrs” value (intact rat adipocytes) is reported as 10%, the “Activity following incubation at pH 8.5, 37° C. (%), 20 hrs” value (intact rat adipocytes) is reported as 20% and the “Activity following incubation at pH 8.5, 37° C. (%), 45 hrs” value (intact rat adipocytes) is reported as 97%. For the same compound, the “Solubility in aqueous buffer (pH 7.4, mg/ml)” value (“Solubility in aqueous buffer” for short) [2] was “˜2 mg/ml”, the “Appearance in aqueous buffer (pH 7.4)” value [3] was “cloudy” and the “Biological potency following incubation (2 days, 37° C., pH 8.5)” value (“Biological potency following incubation” for short) [4] was 93. The “Biological potency (%)” value [4] was 2 ± 1%.

For “Gly^A1, Phe^B1, Lys^B29-N-(Fmoc)3-insulin”, the “Lag period of activation” value ([5]; pH 7.4, 37° C.) was “six day lag period”, the “Solubility in aqueous buffer” value [2] was “˜0.2 mg/ml” and the “Resistance to proteolysis” value (chymotrypsin and trypsin) was “highly resistant to proteolysis”. For the same compound, the “Appearance in aqueous buffer (pH 7.4)” value [3] was “very cloudy”, the “Delayed onset of antidiabetic action” value (STZ-diabetic rats; STZ rats, single s.c. 1 mg) was “approximately two days” and the “Duration of antidiabetic action” value (STZ-diabetic rats; STZ rats, single s.c. 1 mg) was “four days”. The Daily weight gain (STZ-diabetic rats; STZ rats, single s.c. 1 mg, followed seven days) was 1.43±0.14 g/rat/day, the “Circulating glucose level lower than in native insulin group” value (STZ-diabetic rats; single s.c. 1 mg, day two up to day six) was 90 to 110 mg/dL and the “Biological potency (%)” value ([4]; listed as N-(Fmoc)3-insulin Gly^A1, Lys^B29, Phe^B1) was less than 1%. The “Biological potency (%)” value ([4]; listed as tri-N-Fmoc-insulin) was less than 1%.

For Gly^A1, Phe^B1-N-(Fmoc)2-insulin, the “Activity following incubation at pH 8.5, 37° C. (%), 9 hrs” value (intact rat adipocytes) was 18%, the “Activity following incubation at pH 8.5, 37° C. (%), 20 hrs” value (intact rat adipocytes) was 40% and the “Activity following incubation at pH 8.5, 37° C. (%), 45 hrs” value (intact rat adipocytes) was 100%. The “Solubility in aqueous buffer” value [2] was “˜2 mg/ml”, the “Appearance in aqueous buffer (pH 7.4)” value [3] was “cloudy” and the “Biological potency following incubation” value [4] was 97. For the same compound, the “Biological potency (%)” value [4] was 3 ± 1%.

For “Gly^A1-N-(Fmoc)1-insulin [Gly^A1-N-Fmoc-insulin]”, the “Activity following incubation at pH 8.5, 37° C. (%), 9 hrs” value (intact rat adipocytes) was 50%, the “Activity following incubation at pH 8.5, 37° C. (%), 20 hrs” value (intact rat adipocytes) was 100% and the “Solubility in aqueous buffer” value [2] was “˜3 mg/ml”. The “Appearance in aqueous buffer (pH 7.4)” value [3] was “nearly clear” and the “Biological potency (%)” value [4] was 40 ± 2%.

For “Insulin lispro: human insulin analog with the sequence at B28 and B29 reversed”, the “Potency versus human insulin” value ([6]; in vivo) is listed as “equipotent to human insulin” and the “Absorption from subcutaneous injection sites” value ([6]; versus human insulin) is listed as “absorbed more quickly”.

In the case of Lys^B29-N-(Fmoc)1-insulin, the “t½ of activation (half maximal activation)” value ([5]; buffer, pH 7.4) is reported as 120 h, the “Solubility in aqueous buffer” value [2] is reported as “˜3 mg/ml” and the “Appearance in aqueous buffer (pH 7.4)” value [3] is reported as “nearly clear”. The “Biological potency following incubation” value [4] was 94 and the “Biological potency (%)” value [4] was 78 ± 4%.

With Phe^B1, Lys^B29-N-(Fmoc)2-insulin the “Activity following incubation at pH 8.5, 37° C. (%), 9 hrs” value (intact rat adipocytes) was 10%, the “Activity following incubation at pH 8.5, 37° C. (%), 20 hrs” value (intact rat adipocytes) was 20% and the “Activity following incubation at pH 8.5, 37° C. (%), 45 hrs” value (intact rat adipocytes) was 98%. The “Lag period of activation” value ([5]; pH 7.4, 37° C.) was “not seen”, the “Start of conversion to the native hormone after incubation” value ([5]; pH 7.4, 37° C.) was “starts shortly (within hours) after incubation” and the “Period of hypoglycemia / reduced blood glucose” value (normal rats) was “about 48 hours”. For the same compound, the “Recovery from hypoglycemia, t½” value (normal rats) was 26 h, the “Solubility in aqueous buffer” value [2] was “˜2 mg/ml” and the “Appearance in aqueous buffer (pH 7.4)” value [3] was “cloudy”. The Period of normoglycemia (STZ-diabetic rats; STZ rats, single s.c. 3 mg/rat) was 4 days, the “Daily weight gain gram/rat (over the first three days)” value (STZ-diabetic rats; STZ rats, single s.c. 3 mg/rat, first three days) was 11.5 ± 1.3 gram/rat and the “Effectiveness in lowering blood glucose levels” value (STZ-diabetic rats; STZ rats, single s.c. administration) was “as effective as the commercially available (insoluble) long-acting preparation”. For the same compound, the “Biological potency (%)” value ([4]; Lys^B29-N-(Fmoc)2 insulin) was 9% and the “Biological potency (%)” value ([4]; listed as N-(Fmoc)2-insulin Phe^B1, Lys^B29) was 9 ± 2%.

With Phe^B1-N-(Fmoc)1-insulin the “Solubility in aqueous buffer” value [2] was “˜3 mg/ml”, the “Appearance in aqueous buffer (pH 7.4)” value [3] was “nearly clear” and the “Biological potency (%)” value [4] was 76 ± 4%.

For “Polymyxin-B [native PMXB, reference compound]”, the IC50 (E. coli; 3 d, 37° C., pH 7.4) was 55 nM, the “Antimicrobial potency (%)” value (E. coli; 3 d, 37° C., pH 7.4) was 100% and the IC50 (E. coli; 3 d, 37° C., pH 8.5) was 100 nM. The “Antimicrobial potency (%)” value (E. coli; 3 d, 37° C., pH 8.5) was 100%, the IC50 (E. coli; 6 d, 37° C., pH 7.4) was 228 nM and the “Antimicrobial potency (%)” value (E. coli; 6 d, 37° C., pH 7.4) was 100%. The IC50 (E. coli; 6 d, 37° C., pH 8.5) was 200 nM, the “Antimicrobial potency (%)” value (E. coli; 6 d, 37° C., pH 8.5) was 100% and the IC50 (E. coli; no treatment) was 50 nM. The “Antimicrobial potency (%)” value (E. coli; no treatment) was 100%.

For “di-9-(fluorenylmethoxycarbonyl)polymyxin B [(Fmoc)2-PMBX]”, the IC50 (E. coli; 3 d, 37° C., pH 7.4) was 227 nM and 350 nM, the IC50 (E. coli; 3 d, 37° C., pH 8.5) was 125 nM and the “Antimicrobial potency (%)” value (E. coli; 3 d, 37° C., pH 8.5) was 80%. For the same compound, the IC50 (E. coli; 6 d, 37° C., pH 8.5) was 200 nM, the “Antimicrobial potency (%)” value (E. coli; 6 d, 37° C., pH 8.5) was 100% and the “t½ of hydrolysis back to active PMXB, pH 7.4” value (E. coli; buffer, pH 7.4) was roughly 1 days. The “t½ of hydrolysis back to active PMXB, pH 8.5” value (E. coli; buffer, pH 8.5) was roughly 3 days, the IC50 (E. coli; no treatment) was 5000 nM and the “Antimicrobial potency (%)” value (E. coli; no treatment) was roughly 1%.

For “hGH: native human growth hormone (Biotechnology General)”, the “Ability … (%)” value (hGH receptor; no treatment) was 100% and the “Stability under the conditions applied to Fmoc-hGH” value (hGH receptor; pH 10.5, 37° C., 4 days) was “^(1)Displacement of iodinated hGH was carried out according to Gertler et al., 1984. Native hGH was fully stable under the conditions applied to Fmoc-hGH (pH 10.5, 37° C., 4 days)”.
